Source: ChEMBL document CHEMBL4425190, “Rat intestinal sucrase inhibited by minor constituents from the leaves and twigs of Archidendron clypearia (Jack.) Nielsen” (Bioorg Med Chem Lett, 2016)

Tests used:
[1] = biological target: Sucrase-isomaltase, intestinal (Rattus norvegicus) (UniProt P23739); test: Inhibition of rat small intestinal sucrase using sucrose as substrate assessed as amount of liberated glucose at 1 mM after 30 mins by glucose oxidase method
[2] = biological target: Sucrase-isomaltase, intestinal (Rattus norvegicus) (UniProt P23739); conditions: 0.02 mM
Description: Inhibition of rat small intestinal sucrase using sucrose as substrate assessed as amount of liberated glucose at 0.02 mM after 30 mins by glucose oxidase method

Sequence of Sucrase-isomaltase, intestinal (Rattus norvegicus) (P23739 1-1013 limits assumed): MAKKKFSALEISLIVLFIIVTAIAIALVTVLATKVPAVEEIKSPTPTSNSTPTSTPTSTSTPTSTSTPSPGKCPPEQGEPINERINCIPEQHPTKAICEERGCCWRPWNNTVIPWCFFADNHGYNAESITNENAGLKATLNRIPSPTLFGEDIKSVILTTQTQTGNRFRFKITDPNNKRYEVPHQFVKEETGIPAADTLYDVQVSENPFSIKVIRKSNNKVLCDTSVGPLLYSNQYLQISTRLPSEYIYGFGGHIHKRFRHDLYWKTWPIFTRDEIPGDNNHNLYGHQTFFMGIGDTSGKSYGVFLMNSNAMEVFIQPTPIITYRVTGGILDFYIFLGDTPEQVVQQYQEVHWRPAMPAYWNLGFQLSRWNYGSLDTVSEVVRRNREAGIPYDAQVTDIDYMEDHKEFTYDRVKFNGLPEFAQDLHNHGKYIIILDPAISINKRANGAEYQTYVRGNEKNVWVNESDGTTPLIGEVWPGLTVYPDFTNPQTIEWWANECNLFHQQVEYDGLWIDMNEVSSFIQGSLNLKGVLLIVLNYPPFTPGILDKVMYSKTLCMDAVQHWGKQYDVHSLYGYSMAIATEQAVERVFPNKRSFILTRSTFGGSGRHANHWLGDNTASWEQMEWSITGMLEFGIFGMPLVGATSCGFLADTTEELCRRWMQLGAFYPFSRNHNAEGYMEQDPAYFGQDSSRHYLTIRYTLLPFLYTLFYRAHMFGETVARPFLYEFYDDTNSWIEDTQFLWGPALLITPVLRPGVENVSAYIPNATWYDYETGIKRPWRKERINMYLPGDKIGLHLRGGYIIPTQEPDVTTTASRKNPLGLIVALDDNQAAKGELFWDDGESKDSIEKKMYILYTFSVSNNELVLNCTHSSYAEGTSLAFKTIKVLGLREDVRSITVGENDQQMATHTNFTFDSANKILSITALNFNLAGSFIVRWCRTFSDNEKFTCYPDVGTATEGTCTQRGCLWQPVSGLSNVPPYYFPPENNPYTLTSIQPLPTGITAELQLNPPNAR
Sequence of Sucrase-isomaltase, intestinal (Rattus norvegicus) (P23739 1014-1841 limits assumed): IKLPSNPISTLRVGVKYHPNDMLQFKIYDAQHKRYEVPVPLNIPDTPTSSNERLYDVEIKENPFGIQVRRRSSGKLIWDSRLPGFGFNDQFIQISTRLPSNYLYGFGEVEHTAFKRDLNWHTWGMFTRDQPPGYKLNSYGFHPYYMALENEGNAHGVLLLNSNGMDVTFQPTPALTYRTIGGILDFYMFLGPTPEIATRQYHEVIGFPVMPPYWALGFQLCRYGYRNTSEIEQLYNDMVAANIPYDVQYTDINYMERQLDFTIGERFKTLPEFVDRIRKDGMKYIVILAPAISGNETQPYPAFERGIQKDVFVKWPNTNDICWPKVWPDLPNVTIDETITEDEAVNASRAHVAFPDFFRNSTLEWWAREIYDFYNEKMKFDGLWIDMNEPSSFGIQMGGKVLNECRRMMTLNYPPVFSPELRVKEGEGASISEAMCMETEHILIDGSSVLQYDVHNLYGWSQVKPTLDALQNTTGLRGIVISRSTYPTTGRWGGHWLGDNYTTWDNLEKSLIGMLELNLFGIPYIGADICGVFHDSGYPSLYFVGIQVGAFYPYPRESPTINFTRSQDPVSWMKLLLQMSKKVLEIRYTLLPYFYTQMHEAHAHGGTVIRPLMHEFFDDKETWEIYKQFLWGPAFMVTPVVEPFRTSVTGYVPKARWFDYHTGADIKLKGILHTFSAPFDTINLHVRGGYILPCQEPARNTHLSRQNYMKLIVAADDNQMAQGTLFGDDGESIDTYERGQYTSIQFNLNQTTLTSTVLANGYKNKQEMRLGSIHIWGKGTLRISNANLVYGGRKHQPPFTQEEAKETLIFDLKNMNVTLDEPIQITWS

Compound: COc1cc(C[C@H]2CO[C@H](c3cc(OC)c(O)c(OC)c3)[C@H]2CO[C@@H]2O[C@H](CO)[C@@H](O)[C@H](O)[C@H]2O)cc(OC)c1O
- inhibition [1]: 81.6%

Compound: CC1=CC(=O)CC(C)(C)[C@@]1(O)/C=C/[C@@H](C)O[C@@H]1O[C@H](CO)[C@@H](O)[C@H](O)[C@H]1O
- inhibition [1]: 23.7%

Compound: COc1cc(/C=C/CO)cc(O[C@@H]2O[C@H](CO)[C@@H](O)[C@H](O)[C@H]2O[C@@H]2OC[C@](O)(CO)[C@H]2O)c1OC
- inhibition [1]: 31.3%

Compound: COc1cc([C@@H]2c3c(cc(OC)c(O)c3OC)C[C@H](CO)[C@H]2CO[C@@H]2O[C@H](CO)[C@@H](O)[C@H](O)[C@H]2O)cc(OC)c1O
- inhibition [1]: 66.3%

Compound: COc1cc([C@H]2c3c(cc(OC)c(O)c3OC)C[C@H](CO)[C@H]2CO[C@@H]2O[C@H](CO)[C@@H](O)[C@H](O)[C@H]2O)cc(OC)c1O
- inhibition [1]: 10.8%

Compound: COc1cc(/C=C/CO)cc(OC)c1O[C@H]1O[C@H](CO)[C@@H](O)[C@H](O)[C@H]1O
- inhibition [1]: 14.6%

Compound: N#C[C@H](O[C@@H]1O[C@H](CO[C@@H]2O[C@H](CO)[C@@H](O)[C@H](O)[C@H]2O)[C@@H](O)[C@H](O)[C@H]1O)c1ccccc1
- inhibition [1]: 50.4%

Compound: C[C@H]1O[C@H](O[C@H]2[C@H](O)[C@@H](O)[C@@H](O[C@H]3[C@H](O)[C@@H](O)C(O)O[C@@H]3CO)O[C@@H]2CO)[C@H](O)[C@@H](O)[C@@H]1N[C@H]1C=C(CO)[C@@H](O)[C@H](O)[C@H]1O (stereo not given in full)
- inhibition [2]: 89.5%

Compound: C[C@](O)(CC(=O)O)CC(=O)O[C@@H]1[C@@H](O)[C@H](OCc2ccccc2)O[C@H](CO)[C@H]1O
- inhibition [1]: 88.4%

Compound: CC1=CC(=O)CC(C)(C)[C@@]1(O)/C=C/[C@@H](C)O[C@@H]1O[C@H](CO[C@@H]2OC[C@](O)(CO)[C@H]2O)[C@@H](O)[C@H](O)[C@H]1O
- inhibition [1]: 35.1%

Compound: CC(=O)OC[C@H]1O[C@@H](O[C@H](C)/C=C/[C@@]2(O)C(C)=CC(=O)CC2(C)C)[C@H](O)[C@@H](O)[C@@H]1O
- inhibition [1]: 29.8%

Compound: COc1cc(/C=C/CO)ccc1O[C@@H]1O[C@H](CO)[C@@H](O)[C@H](O)[C@H]1O
- inhibition [1]: 11%

Compound: COc1cc([C@H]2c3c(cc(OC)c(O)c3OC)C[C@H](CO)[C@H]2CO)cc(OC)c1O
- inhibition [1]: 57.5%

Compound: CC1=CC(=O)CC(C)(C)C1/C=C/[C@@H](C)O[C@@H]1O[C@H](CO[C@@H]2OC[C@](O)(CO)[C@H]2O)[C@@H](O)[C@H](O)[C@H]1O (stereo not given in full)
- inhibition [1]: 13.6%

Compound: COc1cc([C@H]2OC[C@H]3[C@@H]2CO[C@@H]3c2ccc(O)c(OC)c2)ccc1O
- inhibition [1]: 51.3%
